Results: patent publication EP3577173B1, “COMPOSITIONS CONTAINING FATTY ACID ESTERS OF VEGETABLE ORIGIN AS SOLVENTS” (Benessere, Vincenzo, priority 2017, dated 2018)

Columns and labels:
[1] = Dissolution time of resin in solvent until the solution is clear (base for coating materials); type: physicochemical; conditions: magnetic stirring, time when solution becomes clear and no deposit is found
Procedure: Three commercial solvents (D100, mineral oil; 7129, 2-ethylhexyl palmitate; PARYOL TMC 810T, caprylic/capric triglyceride) and the solvents described in examples 1-4 were used. The resins of Example 1 and the chosen solvent were placed on a heating plate under magnetic stirring at 80 °C for one hour, and then allowed to cool to ambient temperature for 24 hrs. Table 1. ROSIN MODIFIED ESTER RESIN BASED PAINTS

[2] = Dynamic light scattering of 5% by weight resin solution (solvent power); type: physicochemical; conditions: DLS
Source text: A first assessment of the higher solvent power of pelargonic acid esters with respect to the classical solvents can be performed by means of the analysis of the data obtained with the dynamic light scattering technique (SMD 6000 Laser Quantum apparatus,50 mW source of light beam at 532.5 nm) carried out on the solution at 5% by weight of modified phenolic (Table 3) and Maleic (Table 4)Resin, solubilized with traditional mineral solvents (base mineral oilD100), traditional vegetal oil (RADIA 7129) and the solvents of the present invention. The DLS technique (Dynamic Light Scattering) allows to monitor the intensity depending on time of the light scattered by an object into a solution. The speed of fluctuation of the light intensity depends on the speed with which the element capable of generating such scattering moves into a solution; the latter is described by the diffusion coefficient D, which is related to the size of the particles into the solution, in particular to the hydrodynamic radius RI of a ball moving in a solvent having a viscosity η, according to the Stokes-Einstein equation: D = (kT)/(6πηRi) [formula] where k is the Boltzmann constant and T is the temperature.
The measurements of the dynamic light scattering allowed to evaluate the capacity of different solvents, used to disperse the two resins, to generate sub-micrometric aggregates: K16 and a maleic resin. This dispersion capacity is linked to the solvent capacity of individual substances. The lower is the size of aggregates, the better is the solvent power for the solute concerned. In the case of the present invention, the solvent consists of the compounds of general formula (I) and solutes are modified PHENOLIC RESINS and MALEIC RESINS. In this case, the smaller is the hydrodynamic radius, better is the solvation degree of the resin by the solvent, which is therefore better than solvents giving a lower solvation degree, and therefore a larger hydrodynamic radius relative to the same resins. The hydrodynamic radii found by DLS for the solvents used by us are the lowest compared to the other commercially available solventsstudied. The high solvent power, therefore confirmed by the hydrodynamic radius, has a huge impact on the paint final properties and on the production mode. The final properties are affected by the fact that the higher solvent power of our compounds allows to dissolve the rosin and maleic resins up to 70% by weight, and therefore allow to produce paints having a high degree of gloss and very high surface resistance, since these latter properties depend on the amount of resin that a solvent can dissolve to form a paint. In addition, the production mode of the paint was performed at 80°C instead of 200°C because our compounds are more solvent with respect to the commercially available ones and need a lower operating temperature in order to dissolve completely and appropriately the resins concerned.
Actually, in samples having a good resin dispersion, which are clear, particles with sub-micrometric size (2-300 nm) are obtained; sizes are associated with the presence of more or less large aggregates. In the extreme cases of precipitation phenomena (> 1000 nm), the sample appears cloudy, and this is associated with a very poor resin dispersion.
In our case, from the data shown in Tables 1 and 2 of Example 3 it can be clearly seen that […] for the solvents of the invention, and therefore the size of the aggregates, is considerably lower than in solvents commercially available at present for dispersing modified phenolic resins and maleic resins. […] A 5% w/w modified synthetic phenolic resin was used for the mixtures to be tested by DLS obtained industrially by esterification of rosin with pentaerythritol, and subsequent polymerization with phenol, trade name SIRIUS XVI, supplied by YSER. The Maleic Resin used is Perseus I supplied by Yser. Table 3. ROSIN MODIFIED ESTER RESIN

[3] = 5% w/w Perseus I resin in the solvent
[4] = 5% w/w SIRIUS XVI resin in the solvent

| 45% resin (dissolution time at 80 °C, min) ([1]; rosin modified ester resin) | 45% resin (dissolution time at 80 °C, min) ([1]; maleic resin) | Hydrodynamic radius (nm) [2, 3] | Polydispersity index [2, 3] | Hydrodynamic radius (nm) [2, 4] | Polydispersity index [2, 4] | SMILES | 55% resin (dissolution time at 80 °C, min) ([1]; rosin modified ester resin) | aggregate sizes ([2]; maleic resin dispersed in the solvent) | aggregate sizes ([2]; modified phenolic resin dispersed in the solvent) | 55% resin (dissolution time at 80 °C, min) ([1]; maleic resin) |
| --- | --- | --- | --- | --- | --- | --- | --- | --- | --- | --- |
| >60 min |  |  |  |  |  | CCCCCCCCCCCCCCCC(=O)OCC(CC)CCCC (stereo not shown) [Solvent 7129, 2-ethylhexyl palmitate] | A clear solution is not obtained after 2 hrs | exceeding the limit of detectability by DLS | exceeding the limit of detectability by DLS |  |
| >60 min | >60 min |  |  |  |  | CCCCCCOC(=O)CCCCC [CAOEs, hexyl caproate] | A clear solution is not obtained after 2 hrs |  |  | A clear solution is not obtained after 4 hrs |
| >60 min | >60 min |  |  |  |  | CCCCCCCCCCCC(=O)OCCCC [LAOBu, butyl laurate] | A clear solution is not obtained after 2 hrs |  |  | A clear solution is not obtained after 2 hrs |
| >60 min | >60 min |  |  |  |  | CCCCCC(=O)OCCCC [CAOBu, butyl caproate] | A clear solution is not obtained after 2 hrs |  |  | A clear solution is not obtained after 4 hrs |
| >60 min | >60 min |  |  |  |  | CCCCCCCCCCCC(=O)OCC(CC)CCCC (stereo not shown) [LAOEtEs, 2-ethyl-hexyl laurate] | A clear solution is not obtained after 2 hrs |  |  | A clear solution is not obtained after 2 hrs |
| >60 min | >60 min |  |  |  |  | CCCCCCCCCCCC(=O)OCCCCCC [LAOEs, hexyl laurate] | A clear solution is not obtained after 2 hrs |  |  | A clear solution is not obtained after 2 hrs |
| >60 min | >60 min |  |  |  |  | CCCCCCCCOC(=O)CCCCC [CAOOt, octyl caproate] | A clear solution is not obtained after 2 hrs |  |  | A clear solution is not obtained after 4 hrs |
| 15 min | 10 min | 1.7±0.6 nm | 0.90±0.42 | 8.9 ± 0.9 nm | 0.76±0.11 | CCCCCCCCC(=O)OC [PAOMe, methylpelargonate] | 16 min |  |  | 15 min |
| 13 min | 15 min | 2.34 ± 0.8 nm | 0.70±0.06 | 12.9 ± 0.4 nm | 0.71±0.06 | CCCCCCCCC(=O)OCCCC [PAOBu, butylpelargonate] | 14 min |  |  | 20 min |
| >60 min | >60 min |  |  |  |  | CCCCCCCCCCCC(=O)OC(C)C [LAOiPr, isopropyl laurate] | A clear solution is not obtained after 2 hrs |  |  | A clear solution is not obtained after 2 hrs |
| 50 min | 60 min |  |  |  |  | CCCCCCCCC(=O)OCC(CC)CCCC (stereo not shown) [PAOEtEs, 2-ethyl-hexyl pelargonate] | Clear solution |  |  | Clear solution |
| 13 min | 10 min | 2.74±0.11 nm | 1.0±0.3 | 9.2 ± 1.3 nm | 0.64±0.14 | CCCCCCCCC(=O)OC(C)C [PAOiPr, isopropyl pelargonate] | 15 min |  |  | 15 min |
| >60 min | >60 min |  |  |  |  | CCCCCCCCCCCC(=O)OCCCCCCCC [LAOOt, octyl laurate] | A clear solution is not obtained after 2 hrs |  |  | A clear solution is not obtained after 2 hrs |
| >60 min |  |  |  |  |  | CCCCCC(=O)OCC(CC)CCCC (stereo not shown) [CAOEtEs, 2-ethyl-hexyl caproate] | A clear solution is not obtained after 2 hrs |  |  |  |
| >60 min | >60 min |  |  |  |  | CCCCCC(=O)OC(C)C [CAOiPr, isopropyl caproate] | A clear solution is not obtained after 2 hrs |  |  | A clear solution is not obtained after 4 hrs |
